Patent US11697648B2, “Fused pyrimidine pyridinone compounds as JAK inhibitors” (THERAVANCE BIOPHARMA R&D IP, LLC, priority 2019, dated 2023)

Columns and labels:
JAK3 = JAK3 (Homo sapiens (Human), UniProt P52333); assay: Biochemical JAK3 kinase assay (LanthaScreen); conditions: for JAK3 (pKi)-JAK1 (pKi): selectivity JAK3 over JAK1, difference of pKi
In short: (§1)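 GST-JAK + GFP-STAT1 peptide, HEPES pH 7.5/MgCl2/EGTA/Brij-35 buffer; cpd preincubation 1 h RT; ATP start, 1 h RT; stop with 10 mM EDTA + 2 nM Tb-anti-pSTAT1; TR-FRET 520/495. 4-parameter IC50 → pKi (Cheng-Prusoff).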

[1] = test system: IL-2 stimulated STAT5 phosphorylation in Tall-1 human T cell line (JAK3); assay: Cellular JAK3 potency assay: inhibition of IL-2 stimulated pSTAT5 in Tall-1 T cells; format: cell-based; conditions: IL-2 stimulated pSTAT5, Tall-1 T cells
In short: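 Tall-1 cells, 45,000 per well, preincubated 1 hour with compound at 37 °C, then stimulated 30 minutes with IL-2 at 300 ng/ml final. pSTAT5 (Tyr694/699) in lysates quantified by AlphaLISA SureFire Ultra. pIC50 derived from inhibition curves, given as mean with SD.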

JAK2 = JAK2 (Homo sapiens (Human), UniProt O60674); assay: Biochemical JAK2 kinase assay (LanthaScreen)
In short: as §1

Tyk2 = Tyk2 (Homo sapiens (Human), UniProt P29597); assay: Biochemical Tyk2 kinase assay (LanthaScreen)
In short: as §1

JAK1 = JAK1 (Homo sapiens (Human), UniProt P23458); assay: Biochemical JAK1 kinase assay (LanthaScreen)
In short: as §1

Caco-2 cell monolayers = assay: Caco-2 permeation assay; format: in vitro ADME; conditions: 5 μM, A-B direction, with Verapamil (25 μM)
In short: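 Compounds tested at 5 μM in duplicate across Caco-2 monolayers, apical-to-basolateral, with 25 μM verapamil to block P-gp, at 37° C., 5% CO2. Apical and basal samples taken at 0 and 120 min, analysed by LC-MS/MS; Papp (cm/sec) calculated as dQ/(dt×Area×concentration).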

Chain of JAK1 (P23458 whole entry): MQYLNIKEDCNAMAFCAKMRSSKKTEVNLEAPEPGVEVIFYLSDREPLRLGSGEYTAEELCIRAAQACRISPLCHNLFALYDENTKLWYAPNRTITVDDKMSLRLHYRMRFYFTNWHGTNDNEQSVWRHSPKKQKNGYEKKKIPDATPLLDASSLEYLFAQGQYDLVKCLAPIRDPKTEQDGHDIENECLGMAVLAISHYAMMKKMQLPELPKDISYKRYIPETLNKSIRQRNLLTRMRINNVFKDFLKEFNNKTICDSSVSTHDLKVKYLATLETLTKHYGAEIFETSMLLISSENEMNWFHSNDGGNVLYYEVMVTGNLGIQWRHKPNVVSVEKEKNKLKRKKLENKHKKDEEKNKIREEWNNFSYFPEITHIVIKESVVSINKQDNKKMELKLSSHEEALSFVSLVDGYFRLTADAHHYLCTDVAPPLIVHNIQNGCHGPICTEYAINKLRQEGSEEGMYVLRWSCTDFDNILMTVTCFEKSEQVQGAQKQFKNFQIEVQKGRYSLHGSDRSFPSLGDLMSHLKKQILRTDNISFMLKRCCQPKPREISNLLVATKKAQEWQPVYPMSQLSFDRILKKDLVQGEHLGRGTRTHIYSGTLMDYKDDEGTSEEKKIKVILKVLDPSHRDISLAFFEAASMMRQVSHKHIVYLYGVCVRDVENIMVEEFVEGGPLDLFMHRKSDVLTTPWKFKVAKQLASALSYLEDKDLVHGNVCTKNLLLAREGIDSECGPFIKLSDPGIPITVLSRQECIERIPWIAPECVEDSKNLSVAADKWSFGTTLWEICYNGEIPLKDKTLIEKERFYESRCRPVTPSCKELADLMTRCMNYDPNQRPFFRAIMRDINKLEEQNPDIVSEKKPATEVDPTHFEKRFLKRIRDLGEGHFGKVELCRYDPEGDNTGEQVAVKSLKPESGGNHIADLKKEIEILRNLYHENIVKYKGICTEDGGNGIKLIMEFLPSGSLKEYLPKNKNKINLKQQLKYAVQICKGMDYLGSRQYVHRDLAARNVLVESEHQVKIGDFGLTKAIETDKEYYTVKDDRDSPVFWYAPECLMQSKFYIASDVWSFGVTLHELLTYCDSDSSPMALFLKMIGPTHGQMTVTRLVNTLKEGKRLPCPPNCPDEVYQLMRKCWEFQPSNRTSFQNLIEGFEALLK
Chain of Tyk2 (P29597 whole entry): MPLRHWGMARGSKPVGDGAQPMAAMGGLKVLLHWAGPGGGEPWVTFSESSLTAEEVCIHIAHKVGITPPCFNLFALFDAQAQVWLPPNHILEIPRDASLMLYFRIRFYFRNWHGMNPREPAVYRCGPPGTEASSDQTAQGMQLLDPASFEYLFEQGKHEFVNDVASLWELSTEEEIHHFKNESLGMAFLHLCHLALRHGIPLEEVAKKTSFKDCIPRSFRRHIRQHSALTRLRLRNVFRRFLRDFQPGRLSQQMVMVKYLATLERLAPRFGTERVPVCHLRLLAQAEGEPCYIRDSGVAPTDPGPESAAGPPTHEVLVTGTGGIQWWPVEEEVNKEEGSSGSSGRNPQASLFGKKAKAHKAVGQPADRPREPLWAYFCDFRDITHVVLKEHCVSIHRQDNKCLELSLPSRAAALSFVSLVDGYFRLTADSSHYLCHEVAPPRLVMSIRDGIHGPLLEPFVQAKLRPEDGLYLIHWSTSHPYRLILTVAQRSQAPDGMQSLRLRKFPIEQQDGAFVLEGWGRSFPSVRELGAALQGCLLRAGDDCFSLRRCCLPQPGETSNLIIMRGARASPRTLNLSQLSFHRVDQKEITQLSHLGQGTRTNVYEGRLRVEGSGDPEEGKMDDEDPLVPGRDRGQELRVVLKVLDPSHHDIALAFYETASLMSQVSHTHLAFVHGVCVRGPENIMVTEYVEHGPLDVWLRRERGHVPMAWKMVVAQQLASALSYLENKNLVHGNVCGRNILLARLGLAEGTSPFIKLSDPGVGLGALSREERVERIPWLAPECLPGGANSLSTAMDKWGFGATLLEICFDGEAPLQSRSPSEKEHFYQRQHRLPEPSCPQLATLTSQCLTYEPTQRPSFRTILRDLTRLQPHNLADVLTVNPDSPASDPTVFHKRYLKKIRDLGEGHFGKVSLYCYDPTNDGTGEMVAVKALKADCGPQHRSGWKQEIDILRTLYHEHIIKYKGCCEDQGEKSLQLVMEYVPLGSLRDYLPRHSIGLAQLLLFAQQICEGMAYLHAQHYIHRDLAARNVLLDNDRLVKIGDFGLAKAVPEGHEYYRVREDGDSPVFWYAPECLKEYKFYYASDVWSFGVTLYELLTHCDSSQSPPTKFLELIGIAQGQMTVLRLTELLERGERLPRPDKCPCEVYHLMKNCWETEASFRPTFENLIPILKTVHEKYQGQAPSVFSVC
Chain of JAK3 (P52333 whole entry): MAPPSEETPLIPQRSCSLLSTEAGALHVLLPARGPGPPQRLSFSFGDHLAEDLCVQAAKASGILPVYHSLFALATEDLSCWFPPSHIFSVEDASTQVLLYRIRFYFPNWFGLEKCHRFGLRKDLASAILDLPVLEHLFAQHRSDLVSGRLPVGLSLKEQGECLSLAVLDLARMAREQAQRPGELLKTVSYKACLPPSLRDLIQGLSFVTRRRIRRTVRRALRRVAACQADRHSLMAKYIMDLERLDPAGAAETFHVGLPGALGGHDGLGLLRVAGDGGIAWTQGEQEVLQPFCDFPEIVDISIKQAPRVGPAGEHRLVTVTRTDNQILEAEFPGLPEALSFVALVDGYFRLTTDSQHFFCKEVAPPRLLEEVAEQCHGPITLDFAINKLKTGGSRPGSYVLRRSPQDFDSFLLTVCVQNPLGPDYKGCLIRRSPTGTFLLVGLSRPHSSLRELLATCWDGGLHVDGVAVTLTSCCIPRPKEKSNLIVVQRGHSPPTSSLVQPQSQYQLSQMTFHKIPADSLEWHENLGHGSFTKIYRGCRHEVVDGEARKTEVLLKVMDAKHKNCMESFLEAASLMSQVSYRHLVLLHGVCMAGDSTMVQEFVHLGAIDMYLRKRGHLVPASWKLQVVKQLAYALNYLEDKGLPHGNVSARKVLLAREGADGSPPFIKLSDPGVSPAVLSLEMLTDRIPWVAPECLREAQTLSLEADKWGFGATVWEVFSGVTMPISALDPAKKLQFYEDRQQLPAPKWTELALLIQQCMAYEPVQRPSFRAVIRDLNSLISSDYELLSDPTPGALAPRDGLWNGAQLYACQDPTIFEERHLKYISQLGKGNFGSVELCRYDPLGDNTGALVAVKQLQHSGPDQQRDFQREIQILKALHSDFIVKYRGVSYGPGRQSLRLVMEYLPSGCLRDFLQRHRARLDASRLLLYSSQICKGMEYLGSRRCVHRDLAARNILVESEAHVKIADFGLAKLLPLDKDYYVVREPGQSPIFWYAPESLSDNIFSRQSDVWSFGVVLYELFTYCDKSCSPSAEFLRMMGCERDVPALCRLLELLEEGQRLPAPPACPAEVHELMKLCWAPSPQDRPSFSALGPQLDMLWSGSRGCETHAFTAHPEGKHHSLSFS
Chain of JAK2 (O60674 whole entry): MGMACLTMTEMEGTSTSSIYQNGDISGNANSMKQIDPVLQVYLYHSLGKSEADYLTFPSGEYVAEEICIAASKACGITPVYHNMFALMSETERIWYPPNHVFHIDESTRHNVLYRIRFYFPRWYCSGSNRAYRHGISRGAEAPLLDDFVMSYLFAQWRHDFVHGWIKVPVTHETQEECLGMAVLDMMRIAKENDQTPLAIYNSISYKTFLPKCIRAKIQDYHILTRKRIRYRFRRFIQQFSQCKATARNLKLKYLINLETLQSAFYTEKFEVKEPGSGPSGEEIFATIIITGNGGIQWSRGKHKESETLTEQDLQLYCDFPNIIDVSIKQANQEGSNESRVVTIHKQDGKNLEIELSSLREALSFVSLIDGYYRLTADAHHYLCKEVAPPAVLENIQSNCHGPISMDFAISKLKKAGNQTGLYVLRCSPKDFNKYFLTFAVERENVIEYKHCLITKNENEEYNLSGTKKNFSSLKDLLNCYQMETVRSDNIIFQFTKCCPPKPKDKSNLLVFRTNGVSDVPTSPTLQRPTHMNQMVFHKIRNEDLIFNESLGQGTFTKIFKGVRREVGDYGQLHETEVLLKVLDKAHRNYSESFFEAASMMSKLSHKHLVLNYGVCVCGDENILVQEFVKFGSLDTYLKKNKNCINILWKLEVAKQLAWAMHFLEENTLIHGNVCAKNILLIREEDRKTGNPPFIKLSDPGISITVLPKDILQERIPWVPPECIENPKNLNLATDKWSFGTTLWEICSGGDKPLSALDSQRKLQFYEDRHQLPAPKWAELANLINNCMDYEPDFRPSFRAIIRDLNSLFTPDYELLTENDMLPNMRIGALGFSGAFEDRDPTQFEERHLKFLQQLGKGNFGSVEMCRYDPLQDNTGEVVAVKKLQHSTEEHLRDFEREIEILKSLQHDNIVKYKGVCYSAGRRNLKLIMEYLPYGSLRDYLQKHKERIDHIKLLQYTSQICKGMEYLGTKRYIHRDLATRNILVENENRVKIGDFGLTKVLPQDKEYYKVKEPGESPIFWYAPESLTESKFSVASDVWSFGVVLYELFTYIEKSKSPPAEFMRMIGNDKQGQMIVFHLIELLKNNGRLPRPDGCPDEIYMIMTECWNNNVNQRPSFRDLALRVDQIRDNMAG

Compound	JAK 3 (pKi) (JAK3)	JAK3 (pKi)-JAK1 (pKi) (JAK3)	Tall-1 (pIC50) [1]	JAK 2 (pKi) (JAK2)	Tyk 2 (pKi) (Tyk2)	JAK 1 (pKi) (JAK1)	Caco Kp (Caco-2 cell monolayers)
C=CC(=O)N1CC(CCn2c(=O)ccc3cnc(Nc4cnn(CCF)c4)nc32)C1 [Example 63]	B (B represents pKi value between 9 and 10 (Ki between 1 nM and 0.1 nM))	A (A represents a value of 3 or above)	B (B represents a pC50 value between 6.7 (included) and 7.5 (IC50 between 200 nM and 32 nM))	E (E represents a pKi value of 7 or below (Ki of 100 nM or above))	E (E represents a pKi value of 7 or below (Ki of 100 nM or above))	E (E represents a pKi value of 7 or below (Ki of 100 nM or above))	A (A represents a value below 5×10^−6 cm/sec)
C=CC(=O)N1CC(CCn2c(=O)ccc3cnc(Nc4ccc(N5CCN(C(=O)COC)CC5)cc4)nc32)C1 [Example 70]	B (B represents pKi value between 9 and 10 (Ki between 1 nM and 0.1 nM))	A (A represents a value of 3 or above)	B (B represents a pC50 value between 6.7 (included) and 7.5 (IC50 between 200 nM and 32 nM))	E (E represents a pKi value of 7 or below (Ki of 100 nM or above))	E (E represents a pKi value of 7 or below (Ki of 100 nM or above))	E (E represents a pKi value of 7 or below (Ki of 100 nM or above))	A (A represents a value below 5×10^−6 cm/sec)
C=CC(=O)N1CC(CCn2c(=O)ccc3cnc(Nc4ccc(N5CCN(C)CC5)c(OC)c4)nc32)C1 [Example 135]	B (B represents pKi value between 9 and 10 (Ki between 1 nM and 0.1 nM))	A (A represents a value of 3 or above)	B (B represents a pC50 value between 6.7 (included) and 7.5 (IC50 between 200 nM and 32 nM))	E (E represents a pKi value of 7 or below (Ki of 100 nM or above))	E (E represents a pKi value of 7 or below (Ki of 100 nM or above))	E (E represents a pKi value of 7 or below (Ki of 100 nM or above))	A (A represents a value below 5×10^−6 cm/sec)
C=CC(=O)N1CC(CCn2c(=O)ccc3cnc(Nc4cnn(CCOC(F)F)c4)nc32)C1 [Example 25]	B (B represents pKi value between 9 and 10 (Ki between 1 nM and 0.1 nM))	A (A represents a value of 3 or above)	C (C represents a pIC50 value between 6 and 6.7 (IC50 between 1 μM and 200 nM))	E (E represents a pKi value of 7 or below (Ki of 100 nM or above))	E (E represents a pKi value of 7 or below (Ki of 100 nM or above))	E (E represents a pKi value of 7 or below (Ki of 100 nM or above))	B (B represents a value between 5×10^−6 and 10×10^−6 cm/sec)
C=CC(=O)N1CC(CCn2c(=O)ccc3cnc(Nc4ccc(N5CCN(C(=O)CC[S+](C)[O-])CC5)cc4)nc32)C1 (stereo not shown) [Example 139]	A (A represents a pKi value≥10 (Ki≤0.1 nM))	A (A represents a value of 3 or above)	C (C represents a pIC50 value between 6 and 6.7 (IC50 between 1 μM and 200 nM))	E (E represents a pKi value of 7 or below (Ki of 100 nM or above))	E (E represents a pKi value of 7 or below (Ki of 100 nM or above))	E (E represents a pKi value of 7 or below (Ki of 100 nM or above))	A (A represents a value below 5×10^−6 cm/sec)
C=CC(=O)N1CC(CCn2c(=O)ccc3cnc(Nc4cccc(N5CCN(C(=O)N(C)C)CC5)c4)nc32)C1 [Example 124]	A (A represents a pKi value≥10 (Ki≤0.1 nM))	A (A represents a value of 3 or above)	B (B represents a pC50 value between 6.7 (included) and 7.5 (IC50 between 200 nM and 32 nM))	E (E represents a pKi value of 7 or below (Ki of 100 nM or above))	E (E represents a pKi value of 7 or below (Ki of 100 nM or above))	E (E represents a pKi value of 7 or below (Ki of 100 nM or above))	B (B represents a value between 5×10^−6 and 10×10^−6 cm/sec)
C=CC(=O)N1CCN(CCn2c(=O)ccc3cnc(Nc4cnn(C)c4)nc32)[C@@H](CO)C1 [Example 131]	B (B represents pKi value between 9 and 10 (Ki between 1 nM and 0.1 nM))	A (A represents a value of 3 or above)	C (C represents a pIC50 value between 6 and 6.7 (IC50 between 1 μM and 200 nM))	E (E represents a pKi value of 7 or below (Ki of 100 nM or above))	E (E represents a pKi value of 7 or below (Ki of 100 nM or above))	E (E represents a pKi value of 7 or below (Ki of 100 nM or above))	A (A represents a value below 5×10^−6 cm/sec)
C=CC(=O)N1CC(CCn2c(=O)ccc3cnc(Nc4ccc(N5CCN(C(=O)CS(C)(=O)=O)CC5)cc4)nc32)C1 [Example 151]	B (B represents pKi value between 9 and 10 (Ki between 1 nM and 0.1 nM))	A (A represents a value of 3 or above)	C (C represents a pIC50 value between 6 and 6.7 (IC50 between 1 μM and 200 nM))	E (E represents a pKi value of 7 or below (Ki of 100 nM or above))	E (E represents a pKi value of 7 or below (Ki of 100 nM or above))	E (E represents a pKi value of 7 or below (Ki of 100 nM or above))	A (A represents a value below 5×10^−6 cm/sec)
C=CC(=O)N1CCN(CCn2c(=O)ccc3cnc(Nc4ccc(N5CCN(C(=O)OC)CC5)cc4)nc32)CC1 [Example 145]	B (B represents pKi value between 9 and 10 (Ki between 1 nM and 0.1 nM))	A (A represents a value of 3 or above)	B (B represents a pC50 value between 6.7 (included) and 7.5 (IC50 between 200 nM and 32 nM))	E (E represents a pKi value of 7 or below (Ki of 100 nM or above))	E (E represents a pKi value of 7 or below (Ki of 100 nM or above))	E (E represents a pKi value of 7 or below (Ki of 100 nM or above))	B (B represents a value between 5×10^−6 and 10×10^−6 cm/sec)
C=CC(=O)N1CC(CCn2c(=O)ccc3cnc(Nc4cccc(CN5CCN(S(=O)(=O)CC#N)CC5)c4)nc32)C1 [Example 125]	A (A represents a pKi value≥10 (Ki≤0.1 nM))	A (A represents a value of 3 or above)	B (B represents a pC50 value between 6.7 (included) and 7.5 (IC50 between 200 nM and 32 nM))	E (E represents a pKi value of 7 or below (Ki of 100 nM or above))	E (E represents a pKi value of 7 or below (Ki of 100 nM or above))	E (E represents a pKi value of 7 or below (Ki of 100 nM or above))	B (B represents a value between 5×10^−6 and 10×10^−6 cm/sec)
C=CC(=O)N1CC(CCn2c(=O)ccc3cnc(Nc4ccc(N5CCN(C(=O)[C@H](C)O)CC5)cc4)nc32)C1 [Example 106]	A (A represents a pKi value≥10 (Ki≤0.1 nM))	A (A represents a value of 3 or above)	B (B represents a pC50 value between 6.7 (included) and 7.5 (IC50 between 200 nM and 32 nM))	E (E represents a pKi value of 7 or below (Ki of 100 nM or above))	E (E represents a pKi value of 7 or below (Ki of 100 nM or above))	E (E represents a pKi value of 7 or below (Ki of 100 nM or above))	A (A represents a value below 5×10^−6 cm/sec)
C=CC(=O)N1CCN(CCn2c(=O)ccc3cnc(Nc4ccc(N5CCN(C(=O)CSC)CC5)cc4)nc32)[C@@H](CC)C1 [Example 188]	B (B represents pKi value between 9 and 10 (Ki between 1 nM and 0.1 nM))	A (A represents a value of 3 or above)	B (B represents a pC50 value between 6.7 (included) and 7.5 (IC50 between 200 nM and 32 nM))	E (E represents a pKi value of 7 or below (Ki of 100 nM or above))	E (E represents a pKi value of 7 or below (Ki of 100 nM or above))	E (E represents a pKi value of 7 or below (Ki of 100 nM or above))	C (C represents a value between 10×10^−6 and 30×10^−6 cm/sec)
C=CC(=O)N1CCN(C(C)Cn2c(=O)ccc3cnc(Nc4ccc(N5CCN(C(C)=O)CC5)cc4)nc32)CC1 (stereo not shown) [Example 201]	B (B represents pKi value between 9 and 10 (Ki between 1 nM and 0.1 nM))	A (A represents a value of 3 or above)	B (B represents a pC50 value between 6.7 (included) and 7.5 (IC50 between 200 nM and 32 nM))	E (E represents a pKi value of 7 or below (Ki of 100 nM or above))	E (E represents a pKi value of 7 or below (Ki of 100 nM or above))	E (E represents a pKi value of 7 or below (Ki of 100 nM or above))	A (A represents a value below 5×10^−6 cm/sec)
